Laboratory results taken from the supplement of paper PMC10307832.

Columns and labels:
Test in all cases: relative viability (nuclei count vs DMSO), 5 days (fraction); higher = more cells survive
Dovitinib + Luminespib = compound: CN1CCN(c2ccc3nc(-c4c(N)c5c(F)cccc5[nH]c4=O)[nH]c3c2)CC1 [Dovitinib] + CCNC(=O)c1noc(-c2cc(C(C)C)c(O)cc2O)c1-c1ccc(CN2CCOCC2)cc1 [Luminespib] (partner 0.01 µM)
In short: (§1)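 Lung cancer cell lines in 1536-well plates got either a single drug or a fixed anchor-drug dose together with five library-drug doses (not always all listed) in √10 steps, by pin tool, on the day after seeding. Nuclei were counted after 5 days, and relative viability is the treated-to-vehicle ratio of nuclei counts. Values are medians of duplicate plates.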

Dovitinib + Foretinib = compound: CN1CCN(c2ccc3nc(-c4c(N)c5c(F)cccc5[nH]c4=O)[nH]c3c2)CC1 [Dovitinib] + COc1cc2c(Oc3ccc(NC(=O)C4(C(=O)Nc5ccc(F)cc5)CC4)cc3F)ccnc2cc1OCCCN1CCOCC1 [Foretinib] (partner 0.25 µM)
In short: as §1

Dovitinib + Dasatinib = compound: CN1CCN(c2ccc3nc(-c4c(N)c5c(F)cccc5[nH]c4=O)[nH]c3c2)CC1 [Dovitinib] + Cc1nc(Nc2ncc(C(=O)Nc3c(C)cccc3Cl)s2)cc(N2CCN(CCO)CC2)n1 [Dasatinib] (partner 0.075 µM)
In short: as §1

Dovitinib + Decitabine = compound: CN1CCN(c2ccc3nc(-c4c(N)c5c(F)cccc5[nH]c4=O)[nH]c3c2)CC1 [Dovitinib] + Nc1ncn([C@H]2C[C@H](O)[C@@H](CO)O2)c(=O)n1 [Decitabine] (partner 2 µM)
In short: as §1

Cell Line | relative viability (Dovitinib + Luminespib; first compound 0.02 µM) | relative viability (Dovitinib + Luminespib; first compound 0.06325 µM) | relative viability (Dovitinib + Luminespib; first compound 0.2 µM) | relative viability (Dovitinib + Luminespib; first compound 0.6325 µM) | relative viability (Dovitinib + Luminespib; first compound 2 µM) | relative viability (Dovitinib + Foretinib; first compound 0.02 µM) | relative viability (Dovitinib + Foretinib; first compound 0.06325 µM) | relative viability (Dovitinib + Foretinib; first compound 0.2 µM) | relative viability (Dovitinib + Foretinib; first compound 0.6325 µM) | relative viability (Dovitinib + Foretinib; first compound 2 µM) | relative viability (Dovitinib + Dasatinib; first compound 0.02 µM) | relative viability (Dovitinib + Dasatinib; first compound 0.06325 µM) | relative viability (Dovitinib + Dasatinib; first compound 0.2 µM) | relative viability (Dovitinib + Dasatinib; first compound 0.6325 µM) | relative viability (Dovitinib + Dasatinib; first compound 2 µM) | relative viability (Dovitinib + Decitabine; first compound 0.02 µM) | relative viability (Dovitinib + Decitabine; first compound 0.06325 µM) | relative viability (Dovitinib + Decitabine; first compound 0.2 µM) | relative viability (Dovitinib + Decitabine; first compound 0.6325 µM) | relative viability (Dovitinib + Decitabine; first compound 2 µM)
NCI-H1734 | 0.177 | 0.231 | 0.185 | 0.182 | 0.198 | 0.9 | 0.813 | 0.834 | 0.735 | 0.834 | 0.431 | 0.501 | 0.436 | 0.439 | 0.452 | 0.49 | 0.519 | 0.472 | 0.506 | 0.467
NCI-H1755 | 0.41 | 0.305 | 0.417 | 0.54 | 0.508 | 0.935 | 0.895 | 1.03 | 0.92 | 0.969 | 0.446 | 0.388 | 0.45 | 0.393 | 0.443 | 0.679 | 0.736 | 0.756 | 0.723 | 0.677
NCI-H1793 | 0.199 | 0.164 | 0.165 | 0.211 | 0.167 | 0.775 | 0.532 | 0.684 | 0.604 | 0.745 | 0.458 | 0.364 | 0.367 | 0.385 | 0.503 | 0.548 | 0.602 | 0.567 | 0.446 | 0.498
NCI-H1915 | 0.717 | 0.897 | 0.884 | 0.775 | 0.781 | 1.07 | 1.08 | 1.1 | 1.07 | 1.06 | 0.317 | 0.308 | 0.313 | 0.278 | 0.353 | 0.26 | 0.258 | 0.246 | 0.251 | 0.284
NCI-H1944 | 0.643 | 0.773 | 0.757 | 0.704 | 0.715 | 0.833 | 0.906 | 0.864 | 0.903 | 0.86 | 0.214 | 0.21 | 0.208 | 0.212 | 0.228 | 0.388 | 0.374 | 0.455 | 0.454 | 0.434
NCI-H1975 | 0.991 | 0.19 | 0.422 | 0.146 | 0.217 | 1.01 | 0.962 | 0.927 | 0.989 | 0.975 | 0.346 | 0.348 | 0.408 | 0.364 | 0.453 | 0.372 | 0.409 | 0.4 | 0.424 | 0.382
NCI-H1993 | 0.873 | 0.716 | 0.816 | 0.728 | 0.346 | 0.759 | 0.714 | 0.742 | 0.771 | 0.771 | 0.748 | 0.634 | 0.599 | 0.684 | 0.261 | 0.637 | 0.598 | 0.67 | 0.683 | 0.622
NCI-H2009 | 0.974 | 1.11 | 0.981 | 0.973 | 1.13 | 1.16 | 1.25 | 1.22 | 1.15 | 1.27 | 0.261 | 0.269 | 0.336 | 0.299 | 0.354 | 0.428 | 0.431 | 0.403 | 0.344 | 0.4
NCI-H2023 | 0.853 | 0.627 | 0.809 | 0.897 | 0.833 | 0.707 | 0.935 | 0.788 | 0.868 | 0.857 | 0.56 | 0.565 | 0.612 | 0.578 | 0.58 | 0.223 | 0.234 | 0.217 | 0.237 | 0.215
NCI-H2085 | 0.41 | 0.457 | 0.485 | 0.495 | 0.484 | 1.01 | 1.16 | 1.01 | 0.961 | 1.01 | 0.234 | 0.261 | 0.235 | 0.248 | 0.319 | 0.606 | 0.532 | 0.592 | 0.573 | 0.558
NCI-H2087 | 0.148 | 0.155 | 0.184 | 0.212 | 0.137 | 1.19 | 1.15 | 1.14 | 1.05 | 1.16 | 0.836 | 0.847 | 0.869 | 0.889 | 0.98 | 0.312 | 0.307 | 0.269 | 0.357 | 0.329
NCI-H2126 | 0.937 | 0.864 | 1.09 | 0.877 | 0.83 | 1.17 | – | 1.3 | 1.14 | 1.15 | 0.599 | 0.596 | 0.766 | 0.622 | 0.623 | 0.605 | 0.573 | 0.676 | 0.556 | 0.599
NCI-H2170 | 0.892 | 0.79 | 0.857 | 0.538 | 0.652 | 0.992 | 0.986 | 1.02 | 0.983 | 0.974 | 0.552 | 0.566 | 0.608 | 0.599 | 0.552 | 0.466 | 0.496 | 0.529 | 0.458 | 0.458
NCI-H2342 | 0.675 | 0.711 | 0.741 | 0.692 | 0.579 | 1.14 | 1.02 | 1.09 | 1.17 | 1.01 | 0.339 | 0.324 | 0.337 | 0.298 | 0.318 | 0.799 | 0.697 | 0.672 | 0.756 | 0.776
NCI-H2347 | 0.426 | 0.442 | 0.661 | 0.357 | 0.255 | 1.58 | 0.902 | 0.83 | 1.2 | 1.02 | 0.317 | 0.276 | 0.322 | 0.303 | 0.33 | 0.642 | 0.545 | 0.644 | 0.682 | 0.623
NCI-H2405 | 0.657 | 0.579 | 0.7 | 0.58 | 0.817 | 1.02 | 0.977 | 1.05 | 1.04 | 1.11 | 0.201 | 0.222 | 0.174 | 0.204 | 0.235 | 0.714 | 0.745 | 0.832 | 0.688 | 0.845
